Data from patent US20230000876A1, “TREATING CANCERS WITH A CYCLIN-DEPENDENT KINASE INHIBITOR” (Nuvation Bio Inc., priority 2021, published 2023).
Read-outs that look alike come from different tables or passages of the source.

How the values were obtained:
[1] = test system: SK-MEL-24; experiment: Cell viability assay, melanoma cell line SK-MEL-24; format: cell-based
Protocol: (§1) 4.4.4 Compound Plate (10×) Preparation and Compound Treatment • 10× concentrate compound plate preparation: Add 198 μL of assay medium into each well of the V-bottom plate; then transfer 2 μL of the stock compound solution of each concentration from the stock plate. Add 2 μL of DMSO into the Blank and Control wells. Pipette up and down to mix well. This V-plate is designated as the 10× concentrate compound plate. • For day 0 plate, add 15 μL of the DMSO-medium into the Control wells. The final DMSO concentration was 0.1%. Then directly proceed to cell viability assay. • For assay plate, add 15 μL of the compound-medium of each well from the 10× concentrate compound plate into the cells in 96-well assay plate according to the plate map. Add 15 μL of the DMSO-medium into the Blank and Control wells. The final DMSO concentration was 0.1%. • Return the assay plate into incubator and incubate for 6 days.
(§2) The procedures were performed according to the Promega CellTiter-Glo Luminescent Cell Viability Assay Kit manual (Promega-G7573). • The CellTiter-Glo buffer was thawed and equilibrated to room temperature prior to use. • CellTiter-Glo Substrate was equilibrated to room temperature prior to use. • The entire liquid volume of CellTiter-Glo Buffer was transferred into the amber bottle containing CellTiter-Glo Substrate to reconstitute the lyophilized enzyme/substrate mixture. […] Plates were covered with aluminum foil to protect from light. • The contents were mixed for 2 minutes on an orbital shaker to induce cell lysis. • The plate was incubated at room temperature for 20 minutes to stabilize luminescent signal. • Record luminescence on the 2104 EnVision plate reader.
(§3) Inhibition rate (IR) of the tested compounds was determined by the following formula: IR (%)=(1−(RLU compound−RLU day0)/(RLU control−RLU day0))*100%. The inhibitions of different dose of compound were calculated in Excel file, and then were used to plot inhibition curves and evaluate related parameters, such as Min (%), Max (%) and GI50. […]

[2] = Pharmacokinetics and brain distribution after single oral dose, mice; format: in vivo, male CD1 mice
Protocol: The pharmacokinetics and brain distribution in maleCD1 mice and Sprague-Dawley rats following a single oral (PO) dose was evaluated. The compound of formula (I) was administered once at 10 mg/kg to mice and at 1, 10, 30, and 100 mg/kg to rats. All doses, compound of formula (I) concentrations, and derived PK parameters are expressed as the free base of the compound of formula (I).
The in-life portion of these studies was performed by Alliance Pharma (Malvern, Pa.) according to Protocols 200107-02 (mice) and 1910158-02 (rats). Animals were assigned randomly to the dose groups and were fasted 12 hours prior to dosing. Water was available ad libitum. The compound of formula (I) (as an HCl salt) was given to male CD1 mice at 10 mg/kg single PO dose, while in Sprague-Dawley rats, the doses were 1, 10, 30, and 100 mg/kg. In both studies, the compound of formula (I) was formulated in 0.5% hydroxypropyl methylcellulose (HPMC)/0.2% Tween 80 and the dosing volume was 5 mL/kg for all dose groups.
Whole blood was collected at 2, 4, 6, and 12 hours post dose from mice and predose and 1, 2, 4, 8, 12, and 24 hours post dose from rats into tubes containing dipotassium ethylenediaminetetraacetic acid (K2EDTA). Blood was obtained from 3 mice and 4 rats per time-point per dose level. The blood samples were processed into plasma analyzed at Alliance Pharma using the method as described below.
The brain tissue was collected from mice at 2, 4, 6, and 12 hours post dose and was collected from rats at 6 hours post dose given 1, 10, 30, or 100 mg/kg of the compound of formula (I). Brain tissue was obtained from 3 mice per time-point at the 10 mg/kg dose level and 4 rats per dose level at the 6-hour post dose time-point.
Brain tissue was rinsed by phosphate-buffered saline (PBS) buffer immediately after harvest, weighed, and mixed with solvent (MeOH:H2O [volume over volume of 20:80]) with a ratio of tissue to solvent of 1:4 (weight over volume). […] After homogenization, the homogenate was aliquoted out for sample analysis.
The concentrations of the compound of formula (I) in the plasma and brain homogenate were determined versus a calibration curve prepared in plasma and naïve brain homogenate, respectively. Samples were deproteinized with acetonitrile containing tolbutamide as internal standard. After centrifugation, the supernatants were analyzed by liquid chromatography with tandem mass spectrometry (LC-MS/MS). Chromatography was performed with a Zorbax SB-C18 (50×2.1 mm, […]) column under gradient conditions described in Table 22. Mobile Phase A (0.1% formic acid [FA] in water) and Mobile Phase B (0.1% FA in acetonitrile) were delivered as a flow rate of 0.8 mL/min. LC-MS/MS was performed using a positive TurboIonSpray® interface on a SciexAPI 4000 and multiple-reaction monitoring (MRM) over a concentration range of 1 ng/mL to 1000 (rats) or 2000 (mice) ng/mL for the plasma and brain homogenate samples.
The mean plasma concentration-time data of the compound of formula (I) was used to determine the pharmacokineticparameters by standard noncompartmental methods using Phoenix® WinNonlin (version 8.2.0; Certara, Princeton, N.J.). Graphs were plotted in Prism® (version 2.3.0; GraphPad, San Diego, Calif.). Concentrations were rounded to 3 significant figures.

[3] = test system: SK-MEL-31; experiment: Cell viability assay, melanoma cell line SK-MEL-31; format: cell-based
Protocol: as §1, §2, §3

Question: Which GI50 ([1]; Homo sapiens, SK-MEL-24, read-out: Absolute GI50) does the source give for `CC(C)N1CCOc2c(F)cc(-c3nc(Nc4ccc(C5CCN(C)CC5)cn4)ncc3F)cc21` [Compound (I), 5-fluoro-4-(8-fluoro-4-isopropyl-3,4-dihydro-2H-benzo[b][1,4]oxazin-6-yl)-N-(5-(1-methylpiperidin-4-yl)pyridin-2-yl)pyrimidin-2-amine] here?
Answer: 0.151 µM

Question: What about the “Max (%)” value ([1]; inhibition rate) of the same molecule?
Answer: 113.43%

Question: What about the “Min (%)” value ([1]; inhibition rate) of the same molecule?
Answer: 1.36%

Question: What about the “Half-life in brain versus plasma” value ([2]; in vivo animal models, oral administration) of the same molecule?
Answer: longer half-life in the brain than in the plasma

Question: And the Kp at 2 h ([2]; male, CD1, mouse, brain, po, 10 mg/kg, mice, single PO 10 mg/kg, 2 h, read-out: Brain:Plasma Ratio, mean (SD))?
Answer: 1.7

Question: What about the Kp at 4 h ([2]; male, CD1, mouse, brain, po, 10 mg/kg, mice, single PO 10 mg/kg, 4 h, read-out: Brain:Plasma Ratio, mean (SD)) of the same molecule?
Answer: 2.1

Question: And the Kp at 6 h ([2]; male, CD1, mouse, brain, po, 10 mg/kg, mice, single PO 10 mg/kg, 6 h, read-out: Brain:Plasma Ratio, mean (SD))?
Answer: 1.9

Question: What about the Kp at 12 h ([2]; male, CD1, mouse, brain, po, 10 mg/kg, mice, single PO 10 mg/kg, 12 h, read-out: Brain:Plasma Ratio, mean (SD)) of the same molecule?
Answer: 3.3

Question: What about the Kp at 12 h ([2]; male, CD1, mouse, brain, po, 10 mg/kg, mice, single PO 10 mg/kg, at 2, 4, 6, and 12 hours post-dose, read-out: Brain-to-plasma concentration ratio) of the same molecule?
Answer: > 1.5

Question: What about the concentration at 2 h ([2]; male, CD1, mouse, brain, mice, single PO 10 mg/kg, 2 h, read-out: Brain Conc) of the same molecule?
Answer: 0.309 µg/mL

Question: And the concentration at 4 h ([2]; male, CD1, mouse, brain, mice, single PO 10 mg/kg, 4 h, read-out: Brain Conc)?
Answer: 0.436 µg/mL

Question: And the concentration at 6 h ([2]; male, CD1, mouse, brain, mice, single PO 10 mg/kg, 6 h, read-out: Brain Conc)?
Answer: 0.464 µg/mL

Question: What about the concentration at 12 h ([2]; male, CD1, mouse, brain, mice, single PO 10 mg/kg, 12 h, read-out: Brain Conc) of the same molecule?
Answer: 0.345 µg/mL

Question: What about the concentration at 2 h ([2]; male, CD1, mouse, plasma, mice, single PO 10 mg/kg, 2 h, read-out: Plasma Conc) of the same molecule?
Answer: 0.187 µg/mL

Question: And the concentration at 4 h ([2]; male, CD1, mouse, plasma, mice, single PO 10 mg/kg, 4 h, read-out: Plasma Conc)?
Answer: 0.209 µg/mL

Question: And the concentration at 6 h ([2]; male, CD1, mouse, plasma, mice, single PO 10 mg/kg, 6 h, read-out: Plasma Conc)?
Answer: 0.247 µg/mL

Question: And the concentration at 12 h ([2]; male, CD1, mouse, plasma, mice, single PO 10 mg/kg, 12 h, read-out: Plasma Conc)?
Answer: 0.105 µg/mL

Question: And the “Max (%)” value ([3]; inhibition rate)?
Answer: 125.31%

Question: What about the “Min (%)” value ([3]; inhibition rate) of the same molecule?
Answer: −0.53%

Question: What about the GI50 ([3]; read-out: Absolute GI50) of the same molecule?
Answer: 1.23 µM
